Results reported in patent publication KR20170021349A, “다양한 질병의 치료를 위한 jnk 신호 전달 경로의 세포 투과성 펩타이드 억제자의 새로운 용도” (자이겐 인플라메이션 리미티드, priority 2014, dated 2017).

Tests used:
C57BL/6 mice [1] = assay: Bleomycin-induced acute lung inflammation (COPD model); type: in vivo, mouse
C57BL/6 mice [2] = assay: Bleomycin-induced lung fibrosis, day 10; type: in vivo, mouse; details: for lymphocyte recruitment and total cell number in BAL: 3x in 10 days; for decrease of inflammatory cell accumulation, fibrotic areas, loss of lung architecture (histology): day 10
db/db mice = assay: db/db mouse model of type 2 diabetes; type: in vivo
Brown Norway rats [3] = assay: Argon laser-induced choroidal neovascularization (ChNV), intravitreal; type: in vivo, rat
Sprague-Dawley rats = assay: STZ diabetic nephropathy model, chronic administration; type: in vivo, rat; details: 1, 2, 4 mg/kg i.v. weekly, 9 weeks
Brown Norway rats [4] = assay: STZ diabetic retinopathy prevention, intravitreal, ERG; type: in vivo, rat

Substance: NH2-DQSRPVQPFLNLTTPRKPRPPRRRQRRKKRG-COOH (H-DQSRPVQPFLNLTTPRKPRPPRRRQRRKKRG-OH; also: D-amino acids (positions not given here)) [XG-102]
- neutrophil recruitment or other cell types in BAL (C57BL/6 mice [1]; 0.001 mg/kg s.c. single dose, 24 h): 영향을 미치지 않았다
- neutrophil recruitment and total cell number in BAL (C57BL/6 mice [1]; 0.1 mg/kg s.c. single dose, 24 h): 현저하게 감소시켰다
- lung MPO level (C57BL/6 mice [1]; MPO not induced by bleomycin): 영향을 주지 않았다
- TNF level in BALF (C57BL/6 mice [1]; TNF very low after BLM): 감소하는 경향이 관찰되었다
- lymphocyte recruitment and total cell number in BAL (C57BL/6 mice [2]; 0.001 mg/kg s.c.): 현저하게 감소시켰다
- decrease of inflammatory cell accumulation, fibrotic areas, loss of lung architecture (histology) (C57BL/6 mice [2]; 0.001 mg/kg): 관찰되었으나
- lymphocyte recruitment and total cell number in BAL (C57BL/6 mice [2]; 0.1 mg/kg s.c.): 효과가 없었다
- decrease of inflammatory cell accumulation, fibrotic areas, loss of lung architecture (histology) (C57BL/6 mice [2]; 0.1 mg/kg): 관찰되지 않았다
- effect on fasting blood glucose (db/db mice; 1 mg/kg s.c. daily 28 days): 효과가 관찰되지 않았다
- effect on body weight (db/db mice; 1 mg/kg, 28 days): 효과가 관찰되지 않았다
- fasting blood glucose plateau (db/db mice; 10 mg/kg s.c. daily 21 days, persisted to day 111, p<0.001): ~5 mmol/L
- brain, spleen, heart weight (db/db mice; 10 mg/kg, day 111): 현저한 효과가 관찰되지 않았다
- epididymal (p<0.05) and retroperitoneal (p<0.01) fat mass (db/db mice; 10 mg/kg, day 111): 현저한 감소를 관찰했다
- kidney (p<0.05) and liver (p<0.01) mass (db/db mice; 10 mg/kg, day 111): 현저한 감소가 관찰되었다
- plasma insulin, MCP-1, IL-6, tPAI-1, TNF (db/db mice; 10 mg/kg, days 57, 77, 108): 현저한 효과가 발견되지 않았으며
- plasma resistin (db/db mice; 10 mg/kg, days 77 and 108): 현저하게 높았다
- 24 h food and water intake, urine and faeces production (db/db mice; 10 mg/kg, metabolic cages): 현저한 효과는 관찰되지 않았다
- body weight gain (db/db mice; 10 mg/kg, from day 28 to 111): 명확하고 현저한 예방
- injection-site finding in subcutaneous tissue (db/db mice; high dose, after about 2 weeks of dosing, progressed to open wounds, healed after end of dosing): 결절 섬유화가 발견되었고
- mean score of fluorescein leakage (mean ± SD) (Brown Norway rats [3]; 300 μg/ml IVT D0,D7, day 14): 2.4 ± 0.9
- mean score of fluorescein leakage (mean ± SD) (Brown Norway rats [3]; 300 μg/ml IVT D0,D7, day 21): 2.4 ± 0.8
- % spots with score 0 (Brown Norway rats [3]; 300 μg/ml, day 14): 7%
- % spots with score 1 (Brown Norway rats [3]; 300 μg/ml, day 14): 9%
- % spots with score 2 (Brown Norway rats [3]; 300 μg/ml, day 14): 18%
- % spots with score 3 (Brown Norway rats [3]; 300 μg/ml, day 14): 66%
- reduction % vs vehicle (Brown Norway rats [3]; 300 μg/ml, day 14, p<0.05): 17%
- % spots with score 0 (Brown Norway rats [3]; 300 μg/ml, day 21): 5%
- % spots with score 1 (Brown Norway rats [3]; 300 μg/ml, day 21): 9%
- % spots with score 2 (Brown Norway rats [3]; 300 μg/ml, day 21): 32%
- % spots with score 3 (Brown Norway rats [3]; 300 μg/ml, day 21): 55%
- reduction % vs vehicle (Brown Norway rats [3]; 300 μg/ml, day 21): -9%
- mean score of fluorescein leakage (mean ± SD) (Brown Norway rats [3]; 3000 μg/ml IVT D0,D7, day 14): 1.7 ± 0.7
- mean score of fluorescein leakage (mean ± SD) (Brown Norway rats [3]; 3000 μg/ml IVT D0,D7, day 21): 2.3 ± 0.7
- % spots with score 0 (Brown Norway rats [3]; 3000 μg/ml, day 14): 0%
- % spots with score 1 (Brown Norway rats [3]; 3000 μg/ml, day 14): 44%
- % spots with score 2 (Brown Norway rats [3]; 3000 μg/ml, day 14): 44%
- % spots with score 3 (Brown Norway rats [3]; 3000 μg/ml, day 14): 12%
- reduction % vs vehicle (Brown Norway rats [3]; 3000 μg/ml, day 14, p<0.001): 41%
- % spots with score 0 (Brown Norway rats [3]; 3000 μg/ml, day 21): 0%
- % spots with score 1 (Brown Norway rats [3]; 3000 μg/ml, day 21): 14%
- % spots with score 2 (Brown Norway rats [3]; 3000 μg/ml, day 21): 47%
- % spots with score 3 (Brown Norway rats [3]; 3000 μg/ml, day 21): 40%
- reduction % vs vehicle (Brown Norway rats [3]; 3000 μg/ml, day 21): -5%
- general behaviour of animals (Brown Norway rats [3]; both doses IVT): 변화되지 않는다
- body weight vs vehicle-treated STZ rats (Sprague-Dawley rats): 차이를 나타내지 않았다
- OP#1 scotopic single flash 0dB amplitude (Brown Norway rats [4]; 0.2 μg/eye IVT d1,8,15, day 6): 49 μV
- OP#2 scotopic single flash 0dB amplitude (Brown Norway rats [4]; 0.2 μg/eye, day 6): 98 μV
- OP#3 scotopic single flash 0dB amplitude (Brown Norway rats [4]; 0.2 μg/eye, day 6): 219 μV
- OP#4 scotopic single flash 0dB amplitude (Brown Norway rats [4]; 0.2 μg/eye, day 6): 147 μV
- photopic 1Hz flicker A-wave amplitude (Brown Norway rats [4]; 0.2 μg/eye, day 6): -3 μV
- photopic 1Hz flicker B-wave amplitude (Brown Norway rats [4]; 0.2 μg/eye, day 6): 63 μV
- photopic 29Hz flicker B-wave amplitude (Brown Norway rats [4]; 0.2 μg/eye, day 6): 9 μV
- scotopic single flash 0dB A-wave amplitude (Brown Norway rats [4]; 0.2 μg/eye, day 6): -209 μV
- scotopic single flash 0dB B-wave amplitude (Brown Norway rats [4]; 0.2 μg/eye, day 6): 421 μV
- scotopic single flash -10dB A-wave amplitude (Brown Norway rats [4]; 0.2 μg/eye, day 6): -151 μV
- scotopic single flash -30dB B-wave amplitude (Brown Norway rats [4]; 0.2 μg/eye, day 6): 269 μV
- OP#1 scotopic single flash 0dB amplitude (Brown Norway rats [4]; 0.2 μg/eye, day 13): 37 μV
- OP#2 scotopic single flash 0dB amplitude (Brown Norway rats [4]; 0.2 μg/eye, day 13): 63 μV
- OP#3 scotopic single flash 0dB amplitude (Brown Norway rats [4]; 0.2 μg/eye, day 13): 165 μV
- OP#4 scotopic single flash 0dB amplitude (Brown Norway rats [4]; 0.2 μg/eye, day 13): 129 μV
- photopic 1Hz flicker A-wave amplitude (Brown Norway rats [4]; 0.2 μg/eye, day 13): -4 μV
- photopic 1Hz flicker B-wave amplitude (Brown Norway rats [4]; 0.2 μg/eye, day 13): 71 μV
- photopic 29Hz flicker B-wave amplitude (Brown Norway rats [4]; 0.2 μg/eye, day 13): 14 μV
- scotopic single flash 0dB A-wave amplitude (Brown Norway rats [4]; 0.2 μg/eye, day 13): -203 μV
- scotopic single flash 0dB B-wave amplitude (Brown Norway rats [4]; 0.2 μg/eye, day 13): 442 μV
